Experimental findings from patent publication US9486398B2, “Composition” (J-OIL MILLS, INC., priority 2012, dated 2016) are described below.

Entries after “also recorded” stand apart in the source; their conditions may differ.

The test has as its system hairless mice Hos:HR1. Kind of test: Stratum corneum water-retaining function (moisture in the keratin, corneometer, back skin). Type of test: in vivo. The following applies: intragastric once a day for 28 days, menaquinone-7 10 mg/kg, collagen hydrolysate 80 mg/kg, soyasapogenol 50 mg/kg. The method, then:
In addition to the reference diet, the test substances shown in Table 6 were administered to the study groups in Examples and Comparative Examples. By dissolving the test substances in a 0.5% carboxymethyl cellulose sodium solution (hereinafter referred to as CMC-Na solution), the composition (skin function improving agent) was prepared.
Forty two hairless mice Hos:HR1 (male, 5-week old) were prepared. Through the 1-week acclimation period and the test period, the mice were freely fed a reference diet (product name: CRF-1, manufactured by Oriental Yeast Co., Ltd.) and water. The insolation condition was set to day and night every 12 hours. After the acclimation period, grouping of 6 mice/group was performed so that the body weight between groups was homogenous.
Continuous and forced intragastric administration of the above composition was performed to the mice once a day for 28 days using a stomach tube. The reference diet and 0.05 mL per 10 g of body weight of a 0.5% CMC-Na solution were administered to the control group.
The keratin usually contains 20% to 30% of water. […] By measuring the moisture in the keratin, the stratum corneum water-retaining function (i.e., skin moisture-retaining function) of a skin function improving agent can be evaluated. […]

Consider `CC(C)=CCC/C(C)=C/CC/C(C)=C/CC/C(C)=C/CC/C(C)=C/CC/C(C)=C/CC/C(C)=C/CC1=C(C)C(=O)c2ccccc2C1=O` [Comparative Example 1, menaquinone-7], for which the “keratin moisture fluctuation value (moisture in the keratin, day 28 minus day before administration)” value is given as “no function of keratin water retention; also recorded: no stratum corneum water-retaining function”. Also, the “keratin moisture fluctuation value (moisture in the keratin, day 28 minus day before administration)” value (listed as menaquinone-7) is “does not exert the keratin water-retaining function; also recorded: does not exert the stratum corneum water-retaining function”.
